US7087430B2, “Human VNO cDNA libraries” (Pherin Pharmaceuticals, Inc., priority 2000, dated 2006)

How the values were obtained:
[1] = system: human VNO; conditions: cited from earlier work
[2] = system: female human VNO cell; test: Electrophysiological membrane currents in cultured human VNO cells; type: cell-based
From the text: FIG. 1 is an electrophysiological trace showing the effects of pertussis toxin on membrane currents induced by a vomeropherin.
FIG. 1C indicates when the cells were exposed to ADO (i.e., ADO pulses).
PTX uncouples receptors from their heterotrimeric G proteins and thereby blocks signal transduction. Sensitivity to PTX is an accepted marker for pathways involving G protein-coupled receptors that decrease intracellular CAMP, regulate ion channels or activate phospholipases (i.e., couple to Gi or G0). (For a review, see Simon et al., (1991) Science 252:802–808.) We have also implicated a specific type of ion channel in the response of human VNO cells to vomeropherins. […] However, as noted above, cultured VNO cells are of limited value as a screening tool due to the need to continually isolate new cells. Thus, construction of a cDNA library was desired in order to clone and express pheromone receptors in a cell line.
As noted above, […] data (FIG. 1) indicate that cells isolated from the VNO of human volunteers respond electrophysiologically to a vomeropherin via a PTX-sensitive pathway, a hallmark of G protein-coupled receptor signaling. Thus, we anticipated that components of the pathway such as G proteins (e.g., Gi and G0), adenylyl cyclase (e.g., type 3 and 7), and various ion channels are expressed in these cells. We assayed for expression of these proteins in the VNO by screening our library for cDNA clones of the corresponding mRNAs. Knowledge of the signaling components expressed in VNO neurons is essential to express the receptors functionally in tissue culture cells for high throughput drug screening assays.

[3] = system: human brain; conditions: human volunteers, delivered non-specifically to the nasal cavity, no detectable odor (Sobel et al. 1999); cited from earlier work

C[C@@]12C=CC[C@H]1[C@@H]1CCC3=CC(=O)CC[C@]3(C)[C@H]1CC2 [androstadienone, androsta-4,16-dien-3-one]
physiological responses on administration to the human VNO [1]: induce bradycardia, bradypnea, increases in core body temperature, and other physiological responses | inward membrane currents induced by vomeropherin ([2]; 10^−7M, human VNO cell, FIG. 1A): inward currents induced

pertussis toxin
effect on ADO-induced inward currents ([2]; cell incubated with 100 ng/ml PTX, FIG. 1B): blocking the inward currents | effect on electrophysiological response to a vomeropherin ([2]; cultured human VNO neuroepithelial cells, FIG. 1): blocks the electrophysiological response to a vomeropherin

CC(=O)Oc1ccc2c(c1)CC[C@@H]1[C@@H]2CC[C@]2(C)C=CC[C@@H]12 [estra-1,3,5(10),16-tetraen-3yl acetate]
brain activation by fMRI [3]: dose-dependent activation of the anterior medial thalamus, the inferior frontal gyrus, and other regions of the human brain | physiological responses in vivo by site of application ([1]; human subjects, VNO versus olfactory or respiratory epithelium (Monti-Bloch et al. 1994)): induces physiological responses in vivo only when applied specifically to the VNO

C[C@@]12C=CC[C@H]1[C@@H]1CCc3cc(O)ccc3[C@H]1CC2 [estra-1,3,5(10),16-tetraen-3-ol]
physiological responses on administration to the human VNO [1]: induce bradycardia, bradypnea, increases in core body temperature, and other physiological responses
